Experimental data: patent US4344939A, “Penicillin 1,1-dioxides, compositions thereof and methods of use” (Bayer Aktiengesellschaft, priority 1979, dated 1982)

Columns and labels:
Type in all cases: cell-based
E. coli T 7 = test: MIC, Table 1, E. coli T 7
Excerpt: (§1) The penicillanic acid 1,1-dioxide derivatives according to the invention inactivate, by inhibition or destruction, the bacterial enzymes which split the β-lactam ring (β-lactamases). The degradation of other penicillins, for example of amoxicillin, mezlocillin, ampicillin, azlocillin, penicillin G, carbenicillin and ticarcillin, is thereby prevented, and on the one hand their activity is thereby retained and on the other hand their spectrum of action is extended to bacteria which produce β-lactamase.

Klebsiella pneum. 1852 = test: MIC, Table 1, Klebsiella pneum. 1852
Excerpt: as §1

[1] = system: Staphylococcus aeureus 1756; test: MIC, Table 1, Staphylococcus aureus 1756
Excerpt: as §1

[2] = system: Staphylococcus aureus 133; test: in vitro turbidity test in Muller-Hinton nutrient broth; conditions: dosage of 1 μg/ml; 1×10^5 to 2×10^5 bacteria per ml; 0.1% glucose; incubated 24 hours
Description: […] In each case, the nutrient solution contained 1×10^5 to 2×10^5 bacteria per ml. The small tubes containing this batch were each incubated for 24 hours and the degree of turbidity was then determined. Absence from turbidity indicates action.

Row | SMILES | MIC (E. coli T 7) | MIC (Klebsiella pneum. 1852) | MIC [1] | degree of turbidity (absence from turbidity indicates action) [2]
1 | CC1(C)S[C@@H]2[C@H](NC(=O)[C@H](NC(=O)N3CCN(S(C)(=O)=O)C3=O)c3ccccc3)C(=O)N2[C@H]1C(=O)O [mezlocillin] | > 256 E/ml | 128 E/ml | 256 E/ml | 
2 | CCOC(OCC)(OCC)C(=O)N[C@@H]1C(=O)N2[C@@H](C(=O)O)C(C)(C)S(=O)(=O)[C@H]12 [Example 1] |  | > 256 E/ml | > 256 E/ml | free from turbidity
